Test results reported in a melting point compilation (Tetko et al.; mined from patent text by program, amines drawn as free bases though some values may be those of a salt).

Row | SMILES | melting point
1 | C[Si](C)(C)OCCOC(=O)c1ccccc1S(N)(=O)=O | 72 to 76 °C
2 | CC(=O)Nc1ccc(/C=C/C(=O)/C=C/c2ccc(NC(C)=O)cc2)cc1 | 253 to 255 °C
3 | Cc1nc(N)c2nc(C)n(NCCCNS(C)(=O)=O)c2c1C | 215 to 217 °C
4 | O=C(O)[C@H](Cc1ccc(O)cc1)NC(=O)C1(NC(=O)C2(S)CCCC2)CCCC1 | 90 °C
5 | CCOC(=O)C1=C(COC)NC(COC)=C(C(=O)OCC)C1c1ccc(SC)cc1 | 136 to 138 °C
6 | CCOC(=O)C1=C(N(C)C)N=C(C)C(C(=O)OCC)C1c1ccccc1C(F)(F)F (stereo unspecified) | 87 °C
7 | CNC(=O)C1CC(=O)c2nc(C)n(C)c2C1 (stereo unspecified) | 194 to 196 °C
8 | CC(C)CCC(=O)NC(C)(Cc1c[nH]c2ccccc12)C(=O)NC(Cc1ccccc1)C(N)=O (racemic) | 170 to 171 °C
9 | Cc1cc2c(cc1N1CC(C)C(C)C1)OC(=O)C2C (stereo unspecified) | 104 to 105 °C
10 | Nc1ccc(Cc2ccccc2)cc1[N+](=O)[O-] | 80 to 83 °C
11 | CC(C)(C#N)c1cc(Cc2cccnc2)cc(C(C)(C)C#N)c1 | 82 to 84 °C
12 | COc1nc(C)nc(NC(=O)NS(=O)(=O)c2cc(Br)cc3c2OS(=O)(=O)C(C)=C3)n1 | 196 to 198 °C
13 | Cc1nc(Cl)c(C#N)c2c1CCCC2 | 98 °C
14 | OCc1sc2cc(Br)ccc2c1Cl | 117 to 118 °C
15 | CC(=O)c1ccc2cc(N3CCNCC3)ccc2c1 | 170 to 172 °C
16 | CCOc1ccc(-n2c(NCc3ccc(Cl)cc3)nc3ccc(Cl)cc32)cc1 | 135 to 136 °C
17 | CNc1cc(CCN)ccc1OC | 90 to 92 °C
18 | CNC(CO)CCOc1cccc2ccccc12 (stereo unspecified) | 101 to 102 °C
19 | O=[N+]([O-])c1cccc2c1nnn2SC(Cl)(Cl)Cl | 136 to 138 °C
20 | CCc1nn(CC(=O)O)c(CC)c1Oc1cc(Cl)cc(Cl)c1 | 157 to 158 °C
21 | CCc1cc2c(s1)-n1c(C)nnc1C(CCCCC(=O)O)N=C2c1ccc(Cl)cc1 (stereo unspecified) | 257 to 260 °C
22 | COc1ccc(-c2ccc3nnn(Cc4ccc5ncccc5c4)c3n2)cc1OC | 149 to 152 °C
23 | CC(C)(C)[Si](C)(C)OCC1(CO[Si](C)(C)C(C)(C)C)c2ccccc2-c2ccccc21 | 84 °C
24 | COC(=O)C(Oc1nc(OC)cc(OC)n1)C(C)(OCc1ccccc1)c1ccccc1 (stereo unspecified) | 115 to 117 °C
25 | NS(=O)(=O)c1c(Cl)cccc1-c1ccccc1 | 185 to 187 °C
26 | CC(C)C1CC(=O)Nc2nc(C#N)c3ncccc3c21 (stereo unspecified) | 220 °C
27 | O=C(NC(=O)c1cccs1)c1cncc([N+](=O)[O-])c1 | 187 °C

Row | SMILES | melting point
28 | CN(C)CCCc1ccc(OCCCNc2nc(N)nn2C)cc1 | 112 to 114 °C
29 | Cc1ccc(S(=O)(=O)NCCc2ccc(C(=O)CBr)cc2)cc1 | 133 to 136 °C
30 | COc1nc(OC)nc(C2CC2)n1 | 68 to 70 °C
31 | N#CCCC(=O)c1ccncc1 | 53.5 to 55 °C
32 | CCC(CC)c1ccc(Cl)c2nc(Oc3c(C)cc(Cl)cc3Cl)n(C)c12 | 155 to 157 °C
33 | CS(=O)(=O)OCCOc1cc([N+](=O)[O-])ccc1N | 132 to 135 °C
34 | O=C(O)c1c(OCCF)cccc1OCCF | 57 to 58 °C
35 | CCON=CNC(=O)c1ccc(C2=NOC(c3cc(Cl)cc(Cl)c3)(C(F)(F)F)C2)cc1C (stereo unspecified) | 143 to 146 °C
36 | O=C1Nc2cc3c(cc2C12COc1cc4c(cc12)CCO4)OCCO3 (stereo unspecified) | > 250 °C
37 | CC(=O)Nc1ccc(OC(C)=O)c2cnsc12 | 215 to 216 °C
38 | CC(C)[C@H](N)C(=O)N[C@@H](Cc1ccccc1)C(O)[C@H](Cc1ccccc1)NC(=O)[C@@H](N)C(C)C | 131 to 132 °C
39 | CSc1nc(OCC2COC(C)(C)O2)c2c(-c3ccccc3Cl)n[nH]c2n1 (stereo unspecified) | 120 to 122 °C
40 | O=C1CC(c2c(Cl)cccc2Cl)CN1 (stereo unspecified) | 153 to 154 °C
41 | CC(C)(C)c1cc(OCc2cccc(C#N)c2)cc(C(C)(C)C)c1O | 78 to 81 °C
42 | N#Cc1cc(-c2ccncc2)c[nH]c1=O | > 300 °C
43 | CCOC(=O)CNC(=O)c1nnc2ccc(Cl)nn12 | 133 to 134 °C
44 | Fc1cc(Cl)c(OCC2=CCCOC2)cc1-n1nc2c(c1Cl)CCCC2 | 90 to 92 °C
45 | COc1ccc(OC(C)=O)cc1[N+](=O)[O-] | 93 to 97 °C
46 | CCOC(=O)C(Cc1c[nH]c2ccccc12)(NC=O)C(=O)OCC | 179 to 180 °C
47 | COc1ccc(CSCC(=O)NO)cc1OC | 78 °C
48 | CCC(=NOC)C1=C(O)CC(c2ccc(NS(C)(=O)=O)cc2)CC1=O (stereo unspecified) | 150 to 151 °C
49 | Cc1cc(I)cc2c(=O)[nH]oc12 | 232 to 233 °C
50 | Nc1ccccc1NC(=O)c1ccc(COC(=O)NCc2cccnc2)cc1 | 139 to 141 °C
51 | O=C(NCCCNc1c([N+](=O)[O-])cnc2ccccc12)c1ccccc1 | 209 to 211 °C
52 | NS(=O)(=O)Oc1cccc(I)c1 | 106 to 108 °C
53 | CC(C)(C)c1cc(CNn2ccnc2)cc(C(C)(C)C)c1O | 171 to 174 °C

Now from value to molecule:

Row | melting point | SMILES
54 | 189 to 191 °C | O=C(O)C1CCc2c(oc3cc(Cl)ccc23)C1 (stereo unspecified)
55 | 153 to 154 °C | COc1cc(N2CCOCC2)ccc1Nc1nc(Nc2ccc3c(c2)CCCC(=O)N3C(C)C)ncc1Cl
56 | 108 to 109 °C | Brc1ccc2c(c1)/C(=C\CN1CCCC1)c1ccccc1CO2
57 | 128 to 131 °C | CC(=O)Oc1ccc(-n2cc(C(=O)O)c(=O)cc2-c2ccc(N(C)C)cc2)cc1
58 | 212 to 214 °C | Cc1c(C)c(N2CCN(c3ccc(C(F)(F)F)cc3)CC2)c(C)c2c1OC(C)(C)C2O (stereo unspecified)
59 | 268 °C | O=C1C=C(c2c[nH]c3ccc(Br)cc23)C(=O)N1
60 | 77 to 79 °C | CN(C)CCOc1ccc(CN2C(=O)C3(COc4cc5c(cc43)OCCO5)c3ccccc32)cc1 (stereo unspecified)
61 | 123 to 124 °C | COc1cc(NC(C)=O)cc(C(F)(F)F)c1
62 | 177 to 179 °C | CC(=O)NC[C@H]1CN(c2ccc(C=C(Br)Br)c(F)c2)C(=O)O1
63 | 280 °C | COc1cc(C2CN(c3cc4c(cc3F)ncc3c4c(=O)c(C(=O)O)cn3C)CCN2)ccc1OCc1ccccc1 (stereo unspecified)
64 | 188 to 190 °C | O=C(O)C1CCc2c(c3ccccc3n2C(=O)c2ccccc2)C1 (stereo unspecified)
65 | 163 °C | O=c1c2cnc3ccccc3c2on1-c1ccccc1
66 | 94 to 95 °C | Nc1nc(Cn2ncc3cc(C(=O)NC[C@H](NS(=O)(=O)c4cccc5ccccc45)C(=O)O)ccc32)cc(=O)[nH]1
67 | 174 to 175 °C | Cc1c(CN2CCc3c(c4cccc(F)c4n3C)C2=O)ncn1C
68 | 115 °C | O=c1nc(-c2cccc(C(F)(F)F)c2)sc2ccccc12
69 | 94 to 98 °C | CC(=O)C(C)Oc1ccc2[nH]c(C)c(C(=O)OCc3ccccc3)c2c1 (stereo unspecified)
70 | 206 to 207 °C | COc1cccc2sc3cc(=O)ccc-3nc12
71 | 60 to 62 °C | COc1cc(OCC(=O)O)c(C)cc1SCc1ccc(-c2ccccc2)cc1
72 | 212 to 217 °C | CC(=O)N1CCC(NC(=O)Nc2cccc(C(F)(F)F)c2)CC1
73 | 179 °C | O=c1c(-c2ccccc2)cc(Cl)c2n1CCSc1ccsc1-2
74 | 204 to 205 °C | CN(C)c1ccc(NC(=O)c2cc3cc([Si](C)(C)C)ccc3n2Cc2cccc(F)c2)cn1
75 | 203 to 205 °C | NC(=O)c1sc2nccc(N3CCCN(c4ccc(F)cc4)CC3)c2c1N
76 | 251 to 257 °C | O=C(O)c1cn(-c2ccc(F)cc2F)c2c(F)c(N3Cc4ccc(Br)cc4C3)c(F)cc2c1=O
77 | 167 to 170 °C | Cc1nc2c3c(c(C(=O)N(C)C)cc2n1C)CCC(c1ccccc1)N3 (stereo unspecified)

Row | melting point | SMILES
78 | 153 to 155 °C | Clc1ccc2c(c1)C(c1ccccn1)=NCc1ccccc1-2
79 | 185 °C | O=C1NC(=O)C(=Cc2ccc(OC3CCN(C(=O)OCC4c5ccccc5-c5ccccc54)CC3)cc2)S1
80 | 198 to 200 °C | O=[N+]([O-])c1cnc2cc(Cl)ccc2c1Nc1ccc(F)cc1
81 | 267 °C | Fc1cc(-c2cc(C(F)(F)F)n3cnc(-c4ccncc4)c3n2)ccc1C(F)(F)F
82 | 93 to 95 °C | O=C(c1ccnc(F)c1)N1CCC[C@H](c2nc(-c3ccc(F)cc3)no2)C1
83 | 108 to 110 °C | O=[N+]([O-])c1ccc(-c2ccsc2-c2ccc(F)cc2)cc1
84 | 207 to 208 °C | CC(C)n1nc(-c2cc(Cl)c(N)nc2-c2ccccc2)ccc1=O
85 | 169 to 172 °C | NC(=O)c1cnc(Oc2ccc(C3OCCO3)cc2F)cn1
86 | 280 to 281 °C | COc1ccc(NC=C2C(=O)OC(=O)c3cc4cccc(C)c4nc32)cc1OC
87 | 121 to 123 °C | CC(C)CCOc1c(-c2ccc(S(C)(=O)=O)cc2)cnn(-c2ccc(F)c(F)c2)c1=O
88 | 184 to 185 °C | CC(C)(C)C(=O)C(Br)C(c1ccc(Cl)cc1Cl)S(=O)(=O)c1ccc(Cl)cc1 (stereo unspecified)
89 | > 250 °C | O=C(Nc1ccc(O)cc1)C(=O)Nc1ccc(O)cc1
90 | 153 to 155 °C | CCCc1nc(OC)c(NC(=O)N2CCN(c3cccc(O)c3)CC2)cc1C
91 | 172 to 174 °C | Cc1ccc(C(=O)Nc2ccc(-c3ccccc3)c(C(F)(F)F)c2)cc1Nc1nccc(-c2cccnc2)n1
92 | 238 to 240 °C | COc1ccc([N+](=O)[O-])c2c1OCC(C(=O)Nc1ccc(N3CCOCC3)cc1)C2 (stereo unspecified)
93 | 120 to 125 °C | COc1ccccc1N1CCN(CCn2nc(-c3c(-c4ccccc4)nn4ccccc34)ccc2=O)CC1
94 | 218 to 219 °C | Cc1c(Oc2ccc(C(=O)NC(C)C)cc2)c2cc(F)ccc2n1CC(=O)O
95 | 179 to 181 °C | COc1ccc2nc(-c3ccc(N)c(I)c3)sc2c1
96 | 205 to 207 °C | NC(=O)c1ccccc1NC(=O)c1ccc(Cl)cc1
97 | 105 to 107 °C | COc1ccc2c3c(c4cc(OC)c(OC)cc4c2c1)C[C@H](CO)N(C(=O)OC(C)(C)C)C3
98 | 115 °C | Cc1nn(-c2ccc(Cl)cc2F)c(=O)[nH]1
99 | 222 to 224 °C | CCN(CC)C1CCCCN(CC(=O)N2c3ccccc3C(=O)Nc3cccnc32)C1 (stereo unspecified)
100 | 106 to 107 °C | CSc1nc2c(OCc3ccccc3)cccc2n1CCCO
101 | 181 to 184 °C | CCCc1ccc(C(=O)Nc2ccc3c(c2)CCC3=O)cc1
